{"source": "patent US20220105234A1", "about": "“ADHESIVE FOR OSSEOINTEGRATED PERCUTANEOUS DEVICES” (Regents of the University of Minnesota, priority 2020, published 2022)", "test_system": "S. aureus", "assay": "LIVE/DEAD assay of bacterial membrane integrity", "format": "cell-based, Staphylococcus aureus", "conditions": "SYTO 9 / propidium iodide stain", "text": "Assessing the antibacterial activity of GL13K-loaded MSNs against Staphylococcus aureus (USA300, MRSA strain). Overnight culture of S. aureus, USA300 prepared in tryptic soy broth (TSB, DF0370-17-3, Fisher Scientific) were used for assessing the antibacterial activity of AMP-loaded MSNs. USA300 is one of the primary causatives of implant associated infection and implant failure. The optical density of the overnight culture was adjusted to 0.05 and treated with different concentrations of AMP-loaded MSN and AMP alone and MSN (without AMP) and PBS (vehicle control) was used as positive and negative controls. The bacteria was cultured for 24 h under different conditions and metabolic activity tested using BacTiter-Glo™ microbial cell viability assay. The assay was performed using manufacturer's instruction and metabolic activity was measured by luminescence which was measured using microplate reader (Synergy HT, Biotek). […] FIGS. 7A-7C show metabolic activity of USA300 cultured in presence of AMP-loaded MSNs, MSN alone and AMP added directly to the bacterial suspension. Values on x-axis correspond to the loaded AMP concentration.\nOvernight culture of S. aureus was treated the same was using method discussed for FIGS. 7A-7C. A LIVE/DEAD assay was performed to visualize cell colonization of surfaces and membrane integrity of all experimental groups. […]", "note": "Where no end group is shown, it is not given here. [ ]: non-standard residue; d: D form."}
{"substance": "D-GL13K (G[dK][dI][dI][dK][dL][dK][dA][dS][dL][dK][dL][dL]) [AMP]", "values": [{"measurement": "membrane-compromised bacteria (antibacterial capability)", "result": "significant membrane-compromised bacteria"}]}
